In paper PMC6211260 (Journal of Enzyme Inhibition and Medicinal Chemistry, 2018):
Where two headings read alike, the source gives them in different places.

Key:
Assay type in all cases: cell-based
[1] = test system: CNS cancer cell lines; experiment: NCI five-dose testing, subpanel mean; settings: subpanel IV: CNS cancer
Protocol: (§1) Screening against the cancer cell lines was carried out at the National Cancer Institute (NCI, Bethesda, Maryland, USA) applying the standard protocol of the NCI[22].

[2] = test system: Leukaemia cell lines; experiment: NCI five-dose testing, subpanel mean; settings: subpanel I: Leukaemia
Protocol: as §1

[3] = test system: breast cancer cell lines; experiment: NCI five-dose testing, subpanel mean; settings: subpanel IX: breast cancer
Protocol: as §1

[4] = test system: colon cancer cell lines; experiment: NCI five-dose testing, subpanel mean; settings: subpanel III: colon cancer
Protocol: as §1

[5] = test system: melanoma cell lines; experiment: NCI five-dose testing, subpanel mean; settings: subpanel V: melanoma
Protocol: as §1

[6] = test system: non-small cell lung cancer cell lines; experiment: NCI five-dose testing, subpanel mean; settings: subpanel II: non-small cell lung cancer
Protocol: as §1

[7] = test system: ovarian cancer cell lines; experiment: NCI five-dose testing, subpanel mean; settings: subpanel VI: ovarian cancer
Protocol: as §1

[8] = test system: prostate cancer cell lines; experiment: NCI five-dose testing, subpanel mean; settings: subpanel VIII: prostate cancer
Protocol: as §1

[9] = test system: renal cancer cell lines; experiment: NCI five-dose testing, subpanel mean; settings: subpanel VII: renal cancer
Protocol: as §1

[10] = test system: A498 renal cancer cell line; experiment: NCI five-dose testing; settings: for IC50 / LD50 (lethal dose 50) / IC (TGI): A498; for IC (TGI): read-out: TGI (total growth inhibition concentration); for LC50 (lethal concentration 50%): A498, read-out: LD50 (lethal dose 50)
Protocol: as §1

[11] = test system: HOP-92 non-small cell lung cancer cell line; experiment: NCI five-dose testing; settings: for IC (TGI): read-out: TGI (total growth inhibition concentration)
Protocol: as §1

[12] = test system: HT-29 colon cancer cell line; experiment: NCI five-dose testing; settings: for LD50 (lethal dose 50) / IC50 / IC (TGI): HT-29; for IC50: read-out: IC50; for IC (TGI): read-out: TGI (total growth inhibition concentration); for CC50: HT-29, read-out: LD50 (lethal dose 50)
Protocol: as §1

[13] = test system: K-562 leukaemia cell line; experiment: NCI five-dose testing; settings: for IC50 / LD50 (lethal dose 50) / IC (TGI): K-562; for IC (TGI): read-out: TGI (total growth inhibition concentration); for CC50: K562, read-out: LD50 (lethal dose 50)
Protocol: as §1

[14] = test system: MDA-MB-468 breast cancer cell line; experiment: NCI five-dose testing; settings: for IC50 / LD50 (lethal dose 50) / IC (TGI): MDA-MB-468; for IC (TGI): read-out: TGI (total growth inhibition concentration); for CC50: MDA-MB-468, read-out: LD50 (lethal dose 50)
Protocol: as §1

[15] = test system: OVCAR-4 ovarian cancer cell line; experiment: NCI five-dose testing; settings: for IC50 / LD50 (lethal dose 50) / IC (TGI): OVCAR-4; for IC (TGI): read-out: TGI (total growth inhibition concentration); for LC50 (lethal concentration 50): OVCAR-4, read-out: LD50 (lethal dose 50)
Protocol: as §1

[16] = test system: PC-3 prostate cancer cell line; experiment: NCI five-dose testing; settings: for LD50 (lethal dose 50) / IC50 / IC (TGI): PC-3; for IC50: read-out: IC50; for IC (TGI): read-out: TGI (total growth inhibition concentration); for LC50 (lethal concentration 50): PC-3, read-out: LD50 (lethal dose 50)
Protocol: as §1

[17] = test system: SK-MEL-5 melanoma cell line; experiment: NCI five-dose testing; settings: for IC50 / LD50 (lethal dose 50) / IC (TGI): SK-MEL-5; for IC (TGI): read-out: TGI (total growth inhibition concentration); for LC50 (lethal concentration 50): SK-MEL-5, read-out: LD50 (lethal dose 50)
Protocol: as §1

[18] = test system: U251 CNS cancer cell line; experiment: NCI five-dose testing; settings: for LD50 (lethal dose 50) / IC50 / IC (TGI): U251; for IC50: read-out: IC50; for IC (TGI): read-out: TGI (total growth inhibition concentration); for CC50: U-251, read-out: LD50 (lethal dose 50)
Protocol: as §1

[19] = Homo sapiens, HOP-92, read-out: LD50 (lethal dose 50)

COc1cccc(-c2nn(-c3ccccc3)cc2-c2ccnc(NCCNS(=O)(=O)c3ccc(Cl)cc3)c2)c1 [Compound 1c, 4-Chloro-N-(2-((4-(3-(3-methoxyphenyl)-1-phenyl-1H-pyrazol-4-yl)pyridin-2-yl)amino)ethyl) benzenesulfonamide]
IC50 [1]: 6.33 µM
IC50 [2]: 2.89 µM
IC50 [3]: 3.79 µM
IC50 [4]: 4.08 µM
IC50 [5]: 4.58 µM
IC50 [6]: 6.02 µM
IC50 [7]: 5.23 µM
IC50 [8]: 4.99 µM
IC50 [9]: 4.79 µM
IC50 [10]: 4.56 µM
LD50 (lethal dose 50) [10]: >100 µM
IC (TGI) [10]: >100 µM
IC50 ([11]; HOP-92): 2.46 µM
LD50 (lethal dose 50) ([11]; HOP-92): >100 µM
IC (TGI) ([11]; HOP-92): 9.4 µM
LD50 (lethal dose 50) [12]: >100 µM
IC50 [12]: 3.37 µM
IC (TGI) [12]: 11.3 µM
IC50 [13]: 3.73 µM
LD50 (lethal dose 50) [13]: >100 µM
IC (TGI) [13]: >100 µM
IC50 [14]: 3.9 µM
LD50 (lethal dose 50) [14]: >100 µM
IC (TGI) [14]: >100 µM
IC50 [15]: 4.15 µM
LD50 (lethal dose 50) [15]: >100 µM
IC (TGI) [15]: >100 µM
LD50 (lethal dose 50) [16]: >100 µM
IC50 [16]: 2.44 µM
IC (TGI) [16]: >100 µM
IC50 [17]: 1.95 µM
LD50 (lethal dose 50) [17]: 7.7 µM
IC (TGI) [17]: 3.8 µM
LD50 (lethal dose 50) [18]: >100 µM
IC50 [18]: 5.89 µM
IC (TGI) [18]: >100 µM

O=S(=O)(NCCCNc1cc(-c2cn(-c3ccccc3)nc2-c2cccc(O)c2)ccn1)c1ccc(F)cc1 [Compound 2m, 4-Fluoro-N-(3-((4-(3-(3-hydroxyphenyl)-1-phenyl-1H-pyrazol-4-yl)pyridin-2-yl)amino)propyl)benzenesulfonamide]
IC50 [1]: 3.28 µM
IC50 [2]: 2.25 µM
IC50 [3]: 2.69 µM
IC50 [4]: 2.68 µM
IC50 [5]: 2.89 µM
IC50 [6]: 3.91 µM
IC50 [7]: 3.79 µM
IC50 [8]: 3.62 µM
IC50 [9]: 3.81 µM
IC50 ([10]; Homo sapiens): 3.52 µM
LC50 (lethal concentration 50%) ([10]; Homo sapiens): 52.3 µM
IC (TGI) ([10]; Homo sapiens): 9.8 µM
IC50 ([11]; Homo sapiens, HOP-92): 2.66 µM
IC (TGI) ([11]; Homo sapiens, HOP-92, HOP-92): 7.6 µM
LD50 (lethal dose 50) [11, 19]: 84.2 µM
CC50 ([12]; Homo sapiens): 47.8 µM
IC50 ([12]; Homo sapiens): 2.26 µM
IC (TGI) ([12]; Homo sapiens): 6.4 µM
CC50 ([13]; Homo sapiens): > 100 µM
IC50 ([13]; Homo sapiens, K562): 2.4 µM
IC (TGI) ([13]; Homo sapiens, K562): 6.3 µM
IC50 ([14]; Homo sapiens): 2.55 µM
CC50 ([14]; Homo sapiens): > 100 µM
IC (TGI) ([14]; Homo sapiens): 6.7 µM
IC50 ([15]; Homo sapiens): 3.82 µM
LC50 (lethal concentration 50) ([15]; Homo sapiens): > 100 µM
IC (TGI) ([15]; Homo sapiens): 4.8 µM
LC50 (lethal concentration 50) ([16]; Homo sapiens): 80.7 µM
IC50 ([16]; Homo sapiens): 3.11 µM
IC (TGI) ([16]; Homo sapiens): 8.5 µM
IC50 ([17]; Homo sapiens): 3.06 µM
LC50 (lethal concentration 50) ([17]; Homo sapiens): 33 µM
IC (TGI) ([17]; Homo sapiens): 10.1 µM
CC50 ([18]; Homo sapiens): 69.5 µM
IC50 ([18]; Homo sapiens, U-251): 2.97 µM
IC (TGI) ([18]; Homo sapiens, U-251): 10.3 µM

O=S(=O)(NCCNc1cc(-c2cn(-c3ccccc3)nc2-c2cccc(O)c2)ccn1)c1ccc(C(F)(F)F)cc1 [Compound 1o, N-(2-((4-(3-(3-Hydroxyphenyl)-1-phenyl-1H-pyrazol-4-yl)pyridin-2-yl)amino)ethyl)-4-(trifluoromethyl)benzenesulfonamide]
IC50 [1]: 2.67 µM
IC50 [2]: 2.34 µM
IC50 [3]: 2.11 µM
IC50 [4]: 2.38 µM
IC50 [5]: 2.37 µM
IC50 [6]: 3.03 µM
IC50 [7]: 3.12 µM
IC50 [8]: 3.45 µM
IC50 [9]: 2.45 µM
IC50 ([10]; Homo sapiens): 1.71 µM
LC50 (lethal concentration 50%) ([10]; Homo sapiens): 41.4 µM
IC (TGI) ([10]; Homo sapiens): 14.5 µM
IC50 ([11]; Homo sapiens, HOP-92): 1.97 µM
IC (TGI) ([11]; Homo sapiens, HOP-92, HOP-92): 6.2 µM
LD50 (lethal dose 50) [11, 19]: 52 µM
CC50 ([12]; Homo sapiens): 35.1 µM
IC50 ([12]; Homo sapiens): 2.04 µM
IC (TGI) ([12]; Homo sapiens): 5.4 µM
CC50 ([13]; Homo sapiens): > 100 µM
IC50 ([13]; Homo sapiens, K562): 2.48 µM
IC (TGI) ([13]; Homo sapiens, K562): 6.5 µM
IC50 ([14]; Homo sapiens): 2.05 µM
CC50 ([14]; Homo sapiens): > 100 µM
IC (TGI) ([14]; Homo sapiens): 5.02 µM
IC50 ([15]; Homo sapiens): 2.85 µM
LC50 (lethal concentration 50) ([15]; Homo sapiens): 81.2 µM
IC (TGI) ([15]; Homo sapiens): 16.9 µM
LC50 (lethal concentration 50) ([16]; Homo sapiens): 93.4 µM
IC50 ([16]; Homo sapiens): 2.47 µM
IC (TGI) ([16]; Homo sapiens): 10.9 µM
IC50 ([17]; Homo sapiens): 1.78 µM
LC50 (lethal concentration 50) ([17]; Homo sapiens): 6.3 µM
IC (TGI) ([17]; Homo sapiens): 3.3 µM
CC50 ([18]; Homo sapiens): 44.1 µM
IC50 ([18]; Homo sapiens, U-251): 2.65 µM
IC (TGI) ([18]; Homo sapiens, U-251): 7.2 µM

O=S(=O)(NCCNc1cc(-c2cn(-c3ccccc3)nc2-c2cccc(O)c2)ccn1)c1ccc(Br)cc1 [Compound 1k, 4-Bromo-N-(2-((4-(3-(3-hydroxyphenyl)-1-phenyl-1H-pyrazol-4-yl)pyridin-2-yl)amino)ethyl) benzenesulfonamide]
IC50 [1]: 2.18 µM
IC50 [2]: 2.11 µM
IC50 [3]: 2.34 µM
IC50 [4]: 2.29 µM
IC50 [5]: 2.03 µM
IC50 [6]: 2.69 µM
IC50 [7]: 2.87 µM
IC50 [8]: 2.54 µM
IC50 [9]: 2.48 µM
IC50 [10]: 3.33 µM
LD50 (lethal dose 50) [10]: 34.3 µM
IC (TGI) [10]: 5.4 µM
IC50 ([11]; HOP-92): 2 µM
LD50 (lethal dose 50) ([11]; HOP-92): 34.6 µM
IC (TGI) ([11]; HOP-92): 5.0 µM
LD50 (lethal dose 50) [12]: 17.3 µM
IC50 [12]: 2.17 µM
IC (TGI) [12]: 5.0 µM
IC50 [13]: 1.98 µM
LD50 (lethal dose 50) [13]: >100 µM
IC (TGI) [13]: 5.4 µM
IC50 [14]: 2.7 µM
LD50 (lethal dose 50) [14]: >100 µM
IC (TGI) [14]: 7.7 µM
IC50 [15]: 2.32 µM
LD50 (lethal dose 50) [15]: >100 µM
IC (TGI) [15]: 13.7 µM
LD50 (lethal dose 50) [16]: >100 µM
IC50 [16]: 2.07 µM
IC (TGI) [16]: 6.4 µM
IC50 [17]: 1.64 µM
LD50 (lethal dose 50) [17]: 5.6 µM
IC (TGI) [17]: 3.0 µM
LD50 (lethal dose 50) [18]: 25.6 µM
IC50 [18]: 2.21 µM
IC (TGI) [18]: 5.6 µM
